Laboratory results: patent US10807992B2, “Single enantiomer antiparasitic compounds” (priority 2017, dated 2020)
Like-named read-outs stand apart in the source and are kept apart here.

Experiment: Dog PK study of C1 (S) enantiomer, single oral dose, plasma and whole blood by chiral LC-MS/MS
Format: in vivo, beagle dogs
Details: for AUC(0-t): read-out: NCA AUC0-last; for AUC(0-inf): read-out: NCA AUC0-∞
Experimental: This study assessed the in vivo pharmacokinetic (PK) behavior of a single oral dose of the C1 (S) enantiomer in beagle dogs (Charles River study# 20104466). Solutions of C1 (S) enantiomer were dosed by oral gavage (10mg/kg) to a group of dogs (n=3). Blood samples were collected pre-dose and at 0.25, 0.5, 1, 2, 4, and 8 hours following dosing on Day 1. Blood samples were also collected on Days1, 2, 3, 5, 7, 10, 14, 17, 21, 25, 28, 32, 35, 39, 43, and 45. A portion of each whole blood sample was processed to plasma. Test article concentrations in plasma and whole blood were determined using liquid chromatography tandem mass spectrometry (LC-MS/MS).
Calibration curves were constructed by spiking racemic 1-[6-[5-(3,5-dichloro-4-fluoro-phenyl)-5-(trifluoromethyl)-4H-isothiazol-3-yl]spiro[1H-isobenzofuran-3,3′-azetidine]-1′-yl]-3,3,3-trifluoro-propan-1-one into aliquots of blank K2EDTA beagle plasma or whole blood (Bioreclamation, Westbury, N.Y.) at the following nominal concentrations: 5, 10, 20, 50, 100, 200, 500, 1000, 2000, 5000, and 10000 ng/mL. Quality control samples (QCs) were prepared in the same manner at the following concentrations: 15, 30, 150, 800, 1600, 4000, and 8000 ng/mL.
Samples (double blanks, blank+IS, blank+drug, standards, QC samples, and study samples) were extracted using a protein precipitation procedure. A 50 μL aliquot of plasma or blood was transferred into a deep well 96-well plate. To the sample aliquot, 250 μL of an internal standard (IS) solution for plasma or 300 μL for blood was added. The internal standard solution contained Afoxolaner at 50 ng/mL in methanol. For double blanks and blank+drug, neat methanol instead of IS was added. The 96-well plate was capped, shaken for ten minutes, and centrifuged at 5000 relative centrifugal force (RCF) for 10 minutes at 15° C. A 150-200 μL aliquot of the resulting supernatant of each sample was transferred to a clean, 96-well microtiter plate. The microtiter plate was capped and subjected to LC-MS/MS analysis.
The LC-MS/MS system consisted of a Leap autosampler, an Agilent 1100 series liquid chromatography pump, and a SciexAPI4000 mass spectrometer operated in triple quadrupole mode. A ChiralPak IA column (4.6×150mm, 5μm particle, Supplier Daicel PN 80324)at room temperature was used with water as mobile phase A and neat acetonitrile as mobile phase B. The LC gradient, MS parameters, and gas parameters are shown in the tables 2-4, respectively.
The mass spectrometer (MS) was operated in negative Turbo IonSpray™ mode with Multiple Reaction Monitoring (MRM).
Following LC-MS/MS analysis, peak area ratios were calculated (analyte peak area divided by internal standard peak area). Standard curves were created by generating least squares fitting plots of peak area ratio versus nominal concentration. Sample concentrations were calculated from the results of the least squares fits.
Cmax and Tmax are the observed maximum drug concentration and the time at which the maximum concentration occurs, respectively. Area under the curve (AUC) was calculated using the linear trapezoid method. To calculate half-lives (t1/2), a least squares regression was performed on a log concentration (C) versus time (t) plot (semi-log plot) to obtain the slope, k. The t1/2 is equal to 0.693/k. The t1/2 was calculated using data points in the elimination phase. For oral PK, Cl/F=Dose/AUC.
In this report, PK calculations were normalized to the measured dose solution concentrations. Note that in all figures and tables below, the nominal dose is listed.

[1] = dog, plasma, Beagle, oral 10 mg/kg, read-out: Plasma Concentration
[2] = dog, whole blood, Beagle, oral 10 mg/kg, read-out: Blood Concentration
[3] = dog, plasma, Beagle, oral gavage 10 mg/kg
[4] = dog, whole blood, Beagle, oral gavage 10 mg/kg
[5] = plasma, Beagle, oral gavage 10 mg/kg, 10 mg/kg
[6] = same dose level, beagle vs. mongrels

## O=C(CC(F)(F)F)N1CC2(C1)OCc1cc(C3=NS[C@@](c4cc(Cl)c(F)c(Cl)c4)(C(F)(F)F)C3)ccc12 [C1 (S) enantiomer, (S)-1-[6-[5-(3,5-dichloro-4-fluoro-phenyl)-5-(trifluoromethyl)-4H-isothiazol-3-yl]spiro[1H-isobenzofuran-3,3′-azetidine]-1′-yl]-3,3,3-trifluoro-propan-1-one]
1080 hr, Beagle, oral 10 mg/kg
  Blood Concentration: BQL ^b
After 240 hours
  concentration in plasma relative to blood concentration: about twice the blood concentration
At 48 hours
  concentrations in blood and plasma compared: similar
Beagle PK study vs. racemate oral efficacy studies in mongrels
  average half-life compared with the racemate: shorter than that of the racemate
beagle, dog, plasma, po, 10 mg/kg, plasma, Beagle, oral gavage 10 mg/kg, read-out: Tmax
  Tmax: 2 h
beagle, dog, plasma, po, 10 mg/kg, oral gavage 10 mg/kg
  CL/F: 0.833 mL/min/kg
beagle, dog, whole blood, po, 10 mg/kg, whole blood, Beagle, oral gavage 10 mg/kg, read-out: Tmax
  Tmax: 1.7 h
beagle, dog, whole blood, po, 10 mg/kg, oral gavage 10 mg/kg
  CL/F: 1.12 mL/min/kg
Chiral HPLC chromatograms of all study samples, dog
  bioconversion to the C1 (R) enantiomer in vivo: No bioconversion was observed
dog, in vivo, 1080 hr, Beagle, oral 10 mg/kg
  concentration at 1080 hr: 15.7 ± 6.3 ng/mL
[1]
  concentration at 0.25 hr: 291 ± 57 ng/mL
  concentration at 0.5 hr: 1170 ± 250 ng/mL
  concentration at 1 hr: 1920 ± 330 ng/mL
  concentration at 2 hr: 2260 ± 170 ng/mL
  concentration at 4 hr: 2010 ± 360 ng/mL
  concentration at 8 hr: 1110 ± 70 ng/mL
  concentration at 24 hr: 664 ± 112 ng/mL
  concentration at 48 hr: 567 ± 95 ng/mL
  concentration at 72 hr: 552 ± 65 ng/mL
  concentration at 120 hr: 393 ± 67 ng/mL
  concentration at 168 hr: 298 ± 39 ng/mL
  concentration at 240 hr: 270 ± 19 ng/mL
  concentration at 336 hr: 219 ± 24 ng/mL
  concentration at 408 hr: 135 ± 12 ng/mL
  concentration at 504 hr: 103 ± 15 ng/mL
  concentration at 600 hr: 80.4 ± 11.3 ng/mL
  concentration at 672 hr: 55.6 ± 12.2 ng/mL
  concentration at 768 hr: 47 ± 11.9 ng/mL
  concentration at 840 hr: 37.4 ± 8.2 ng/mL
  concentration at 936 hr: 24.8 ± 6.4 ng/mL
  concentration at 1032 hr: 18.8 ± 5.5 ng/mL
[2]
  concentration at 0.25 hr: 412 ± 89 ng/mL
  concentration at 0.5 hr: 1660 ± 380 ng/mL
  concentration at 1 hr: 3210 ± 230 ng/mL
  concentration at 2 hr: 3560 ± 570 ng/mL
  concentration at 4 hr: 2990 ± 340 ng/mL
  concentration at 8 hr: 1220 ± 170 ng/mL
  concentration at 24 hr: 708 ± 162 ng/mL
  concentration at 48 hr: 572 ± 128 ng/mL
  concentration at 72 hr: 428 ± 71 ng/mL
  concentration at 120 hr: 292 ± 56 ng/mL
  concentration at 168 hr: 245 ± 47 ng/mL
  concentration at 240 hr: 136 ± 20 ng/mL
  concentration at 336 hr: 100 ± 6 ng/mL
  concentration at 408 hr: 75.8 ± 11.2 ng/mL
  concentration at 504 hr: 57.3 ± 8.5 ng/mL
  concentration at 600 hr: 41.2 ± 3.7 ng/mL
  concentration at 672 hr: 30.5 ± 5.1 ng/mL
  concentration at 768 hr: 21.5 ± 4.2 ng/mL
  concentration at 840 hr: 17.4 ± 4.8 ng/mL
  concentration at 936 hr: 14.3 ± 3.4 ng/mL
  concentration at 1032 hr: 13.8 ng/mL
[3]
  half-life: 205 h
  AUC(0-t): 191 µg·h/mL
  AUC(0-inf): 196 µg·h/mL
dog, plasma, Beagle, oral gavage 10 mg/kg, read-out: Cmax
  Cmax: 2260 ng/mL
[4]
  half-life: 209 h
  AUC(0-t): 144 ± 11 µg·h/mL
  AUC(0-inf): 148 µg·h/mL
dog, whole blood, Beagle, oral gavage 10 mg/kg, read-out: Cmax
  Cmax: 3650 ng/mL
First few hours post-dose
  blood concentrations compared with plasma concentrations: significantly higher than the corresponding plasma concentrations
Initial phase post-dose
  affinity to red blood cells (RBC): higher initial affinity to red blood cells (RBC)
plasma, Beagle, oral gavage 10 mg/kg
  tlast: 1080 h
[5]
  Cl/F: 0.84 ± 0.0467 mL/min/kg
  Cmax: 2260 ± 170 ng/mL
  NCA AUC0-last: 191 ± 11 µg·h/mL
[6]
  AUC compared with the racemate: lower compared to those of the racemate
  Cmax compared with the racemate: lower compared to those of the racemate
Whole blood, Beagle, oral gavage 10 mg/kg, 10 mg/kg
  Tmax: 1.67 ± 0.58 h
